Consider 35 compounds from US20100267712A1, “ISOINDOLINE COMPOUNDS FOR THE TREATMENT OF SPINAL MUSCULAR ATROPHY AND OTHER USES” (The United States of America, as represented by the …, priority 2007, published 2010).

The subject of data set [1] is SMN-containing gems in type 1 SMA patient fibroblasts (3813 cells). As to the kind of experiment: SMN-containing gem count in SMA patient fibroblasts. Format: cell-based, human. Conditions: 48 hours, 3813 fibroblasts. An excerpt: SMN protein can be found in punctate nuclear particles called “gems” (Liu and Dreyfuss, EMBO J, 15 (14): 3555-3565 (1996)). In fibroblast cells derived from SMA patients, the number of gems corresponds to disease severity as follows: severe type 1 patients have approximately 5 gems per 100 nuclei; mild type 3 patients have 20-50 gems per 100 nuclei; normal individuals have approximately 100-150 gems per 100 nuclei (Coovert et al., Hum Mol Genet, 6 (8): 1205-1214 (1997), Young et al., Exp Cell Res, 265 (2): 252-261 (2001)).
Gems are detectable by immunohistochemistry and gem counts in patient fibroblasts have been used to test the ability of compounds to increase SMN protein levels (Mattis et al., Hum Genet, 120: 589-601 (2006)). Following these methods, fibroblast cells from a type 1 SMA patient (3813 cells, Coriell Cell Repositories) were treated for 48 hours with a compound of the invention. The cells were then fixed and incubated with a monoclonal antibody against SMN (4B7, Wolstencroft et al., Hum Mol Genet, 14: 1199-1210 (2005)). A FITC-conjugated anti-mouse secondary antibody was used to visualize the labeled gems. A positive control in these experiments was provided by fibroblasts from the same patient treated with 1000 μM valproic acid.

The subject of data set [2] is SMN2-linked luciferase-reporter gene construct. As to the kind of experiment: SMN Splice Reporter Assay (SMN2-linked luciferase reporter). The format is cell-based. Conditions: for EC50: cervical carcinoma cell lines, SMN2 splice luciferase reporter; for Fold Increase: fold-increase of luciferase over baseline reading of transformed cells without any test compound. The method in brief:
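Cervical carcinoma cells carrying an SMN2-luciferase splicing reporter, in-frame only with exon 7 inclusion, were treated with compound. Luciferase activity reported as fold increase over untreated transformed cells, with EC50 derived.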
A general note: In a reporter assay the amount or activity of a reporter protein is the signal.

The test system of data set [3] is translational stop codon read-through, human SMN2 open reading frame-luciferase. As to the kind of experiment: Translational read-through luciferase reporter assay (luciferase preceded by the open reading frame of the human SMN2 gene). The format is cell-based. The source says: This assay was similar in design to that described in WO 01/44516 A2. This was a cell-based luciferase reporter assay designed to detect translational read-through via insertion of a translational stop codon within the coding sequence that includes luciferase. In the presence of compounds that promote read-through of translational stop codons, active luciferase was produced and detected via chemiluminescence. Compounds of the invention typically were active in three versions of this assay: luciferase reporter containing a UGA stop codon, luciferase reporter containing a UAG stop codon, which is the first stop codon downstream of the improper splice junction between exons 6 and 8 in the human SMN2 transcript, and luciferase preceded by the open reading frame of the human SMN2 gene.

In the case of `COc1ccc2c(c1)C(=O)N(c1ccc3[nH]c(=O)ccc3c1)C2` [Example 34, 6-(6-methoxy-1-oxoisoindolin-2-yl)quinolin-2(1H)-one], the melting point (usually the temperature of the solid-liquid transition) is 305 to 310 °C.
Regarding `COc1ccc2c(c1)C(=O)N(c1ccc3[nH]c(=O)[nH]c3c1)C2` [Example 35, 5-(6-methoxy-1-oxoisoindolin-2-yl)-1H-benzo[d]imidazol-2(3H)-one], the melting point is 355 to 360 °C (dec.).
On the same count and under the same terms, then `COc1ccc2c(c1)C(=O)N(c1ccc3c(c1)n(C)c(=O)n3C)C2` [Example 36, 5-(6-methoxy-1-oxoisoindolin-2-yl)-1,3-dimethyl-1H-benzo[d]imidazol-2(3H)-one], with 268 to 270 °C; and `COc1ccc2c(c1)C(=O)N(c1ccc3c(c1)NCCN3)C2` [Example 37, 6-methoxy-2-(1,2,3,4-tetrahydroquinoxalin-6-yl)isoindolin-1-one], with 159 to 163 °C.
`COc1ccc2c(c1)C(=O)N(c1ccc3c(c1)N(C)CCN3C)C2` [Example 38, 2-(1,4-dimethyl-1,2,3,4-tetrahydroquinoxalin-6-yl)-6-methoxyisoindolin-1-one] registered a melting point of 137 to 142 °C.
Consider `COc1ccc2c(c1)C(=O)N(c1ccc(C(C)C)cn1)C2` [Example 39, 2-(5-isopropylpyridin-2-yl)-6-methoxyisoindolin-1-one], for which the melting point lay within 109 to 110 °C.
On the same count and under the same terms, next, `COc1ccc2c(c1)C(=O)N(c1ccc3c(ccn3C)n1)C2` [Example 41, 6-methoxy-2-(1-methyl-1H-pyrrolo[3,2-b]pyridin-5-yl)isoindolin-1-one]: 230 to 234 °C; `COc1ccc2c(c1)C(=O)N(c1cc3ccn(C)c3cn1)C2` [Example 42, 6-methoxy-2-(1-methyl-1H-pyrrolo[2,3-c]pyridin-5-yl)isoindolin-1-one]: 205 to 210 °C; `COc1ccc2c(c1)C(=O)N(c1cnc3c(ccn3C)c1)C2` [Example 43, 6-methoxy-2-(1-methyl-1H-pyrrolo[2,3-b]pyridin-5-yl)isoindolin-1-one]: 198 to 199 °C.
`COc1ccc2c(c1)C(=O)N(c1ccc3c(cnn3C)c1)C2` [Example 44, 6-methoxy-2-(1-methyl-1H-indazol-5-yl)isoindolin-1-one] came in with a melting point of 213 to 214 °C.
Same read-out and setting: next, `COc1ccc2c(c1)C(=O)N(c1ccc3c(c1)CCCN3C)C2` [Example 45, 6-methoxy-2-(1-methyl-1,2,3,4-tetrahydroquinolin-6-yl)isoindolin-1-one]: 123 to 127 °C; `O=C1c2ccccc2CN1c1ccc2c(c1)OCCO2` [Example 46, 2-(2,3-dihydrobenzo[b][1,4]dioxin-6-yl)isoindolin-1-one]: 170 to 176 °C; `COc1ccc2c(c1)C(=O)N(c1ccc3ncsc3c1)C2` [Example 47, 2-(benzo[d]thiazol-6-yl)-6-methoxyisoindolin-1-one]: 204 to 207 °C.
The same measure, in the same setting: then `COc1ccc2c(c1)C(=O)N(c1ccc3ccoc3c1)C2` [Example 48, 2-(benzofuran-6-yl)-6-methoxyisoindolin-1-one], with 141 to 143 °C; and `COc1ccc2c(c1)C(=O)N(c1ccc3nc(C)ncc3c1)C2` [Example 49, 6-methoxy-2-(2-methylquinazolin-6-yl)isoindolin-1-one], with 245 to 247 °C.
On to `O=C1c2cc(OC(F)F)ccc2CN1c1ccc2c(c1)CCC2` [Example 50, 6-(difluoromethoxy)-2-(2,3-dihydro-1H-inden-5-yl)isoindolin-1-one], for which the melting point is 137 to 139 °C.
Still for that read-out and setting: next, `COc1ccc2c(c1)C(=O)N(c1ccc3cccnc3c1)C2` [Example 51, 6-methoxy-2-(quinolin-7-yl)isoindolin-1-one]: 220 to 223 °C.
For `COc1ccc2c(c1)C(=O)N(c1ccc3c(ccn3C)c1)C2` [Example 118417], in data set [1] (3 μM compound), the “Average number of gems per 100 nuclei” value came out at 53. In data set [2], the EC50 – broadly, the concentration at which the effect is half-maximal – amounted to 45 nM and the “Fold Increase” value is reported as 1.485.
As for `COc1ccc2c(c1)C(=O)N(c1ccc3ccsc3c1)C2` [Example 118739], the “Average number of gems per 100 nuclei” value in data set [1] (1 μM compound) worked out at 76. Besides, in data set [2], the midpoint of the response, the EC50, lay at 102 nM and the “Fold Increase” value worked out at 1.617.
For `CCCc1ccc2c(c1)C(=O)N(c1ccc3c(ccn3C)c1)C2` [Example 119522], in data set [3], the concentration for a half-maximal effect (EC50) came out at 1840 nM and the maximal fold induction (in general, the ratio of treated to control signal) is 1.73. Besides, in data set [1] (1 μM compound), the “Average number of gems per 100 nuclei” value is given as 6. In data set [2], the response was half-maximal at 68 nM (EC50) and the “Fold Increase” value was 1.557.
In data set [3], `Cn1ccc2cc(N3Cc4ccc(OC(F)F)cc4C3=O)ccc21` [Example 119537] registered an EC50 of 1350 nM and a maximal fold induction of 2.12. The “Average number of gems per 100 nuclei” value in data set [1] (0.1 μM compound) is 31. For the same compound, in data set [2], a half-maximal effect (EC50) was put at 112 nM and the “Fold Increase” value is 1.604.
For the compound `COc1ccc2c(c1)C(=O)N(c1ccc3cc[nH]c3c1)C2` [Example 119869], the “Average number of gems per 100 nuclei” value in data set [1] (1 μM compound) is given as 49. In data set [2], the concentration giving a half-maximal response (EC50) turned out to be 106 nM and the “Fold Increase” value was 1.716.
For `COc1ccc2c(c1)C(=O)N(c1ccc3c(c1)CCCN3C)C2` [Example 120121], in data set [1] (0.1 μM compound), the “Average number of gems per 100 nuclei” value was 16. Besides, in data set [2], the EC50 came to 20 nM and the “Fold Increase” value is 1.702.
The matching figures for `COc1ccc2c(c1)C(=O)N(c1ccc3ncccc3c1)C2` [Example 120286]: 132, 30 nM and 1.713.
As to `COc1ccc2c(c1)C(=O)N(c1ccc3c(c1)cc(C)n3C)C2` [Example 120595], the “Average number of gems per 100 nuclei” value in data set [1] (1 μM compound) stood at 32. In data set [2], the EC50 turned out to be 114 nM and the “Fold Increase” value worked out at 1.531.
In the case of `O=C1c2cc(OC(F)F)ccc2CN1c1ccc2ncccc2c1` [Example 120790], in data set [1] (1 μM compound), the “Average number of gems per 100 nuclei” value turned out to be 27. Further, in data set [2], the EC50 was 142 nM and the “Fold Increase” value came to 1.926.
On to `CC(=O)Nc1ccc2c(c1)C(=O)N(c1ccc3ccn(C)c3c1)C2` [Example 121505], for which the “Average number of gems per 100 nuclei” value in data set [1] (1 μM compound) is 47. In data set [2], the EC50 was 203 nM and the “Fold Increase” value worked out at 1.817.
On to `CCOc1ccc2c(c1)C(=O)N(c1ccc3c(ccn3C)c1)C2` [Example 121789], for which, in data set [3], the half-maximal effective concentration (EC50) was 350 nM and the maximal fold induction amounted to 1.79. Besides, in data set [1] (1 μM compound), the “Average number of gems per 100 nuclei” value was 10. Further, in data set [2], the half-maximal effective concentration (EC50) turned out to be 69 nM and the “Fold Increase” value came out at 1.461.
With `CCC(C)c1ccc2c(c1)C(=O)N(c1ccc3c(ccn3C)c1)C2` (stereo not drawn) [Example 122182], the “Average number of gems per 100 nuclei” value in data set [1] (1 μM compound) came to 18. In addition, in data set [2], the EC50 is 101 nM and the “Fold Increase” value is on record as 1.539.
As to `Cn1ccc2cc(N3Cc4ccc(N5CCCC5)cc4C3=O)ccc21` [Example 122317], the “Average number of gems per 100 nuclei” value in data set [1] (1 μM compound) stood at 45. In addition, in data set [2], a half-maximal response (EC50) required 187 nM and the “Fold Increase” value is reported as 1.47.
In data set [3], `Cc1cc2cc(N3Cc4ccc(Cl)cc4C3=O)ccc2n1C` [Example 123011] returned a 50% effective concentration (EC50) of 2640 nM and a maximal fold induction of 1.89. Besides, the “Average number of gems per 100 nuclei” value in data set [1] (1 μM compound) was 37. For the same compound, in data set [2], the EC50 worked out at 88 nM and the “Fold Increase” value stood at 1.481.
In data set [3], `Cc1cc2cc(N3Cc4ccc(N(C)C)cc4C3=O)ccc2n1C` [Example 123707] displayed a half-maximal effective concentration (EC50) of 91 nM and a maximal fold induction of 1.44. Besides, in data set [1] (0.1 μM compound), the “Average number of gems per 100 nuclei” value was determined as 53. Moreover, in data set [2], the response was half-maximal at 99 nM (EC50) and the “Fold Increase” value was 1.635.
`CN(C)c1ccc2c(c1)C(=O)N(c1ccc3c(ccn3C)c1)C2` [Example 124429]: the “Average number of gems per 100 nuclei” value in data set [1] (1 μM compound) is reported as 44. For the same compound, in data set [2], the concentration giving a half-maximal response (EC50) stood at 24 nM and the “Fold Increase” value is 1.594.
Take `Cn1ccc2ccc(N3Cc4ccc(N5CCCC5)cc4C3=O)cc21` [Example 124596]: the “Average number of gems per 100 nuclei” value in data set [1] (1 μM compound) came out at 43. Moreover, in data set [2], a half-maximal response (EC50) required 47 nM and the “Fold Increase” value is 1.681.
For `COc1ccc2c(c1)C(=O)N(c1ccc3cc(C)n(C)c3c1)C2` [Example 124597], the “Average number of gems per 100 nuclei” value in data set [1] (1 μM compound) is on record as 42. In data set [2], the 50% effective concentration (EC50) is 347 nM and the “Fold Increase” value was found to be 1.358.
